# According to the supplement of paper PMC4862054:
# Experiments:
# [1] = system: BT-474; conditions: 72 h
# Summary of the method: (§1)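 Breast cancer cell lines (20 µl suspension) were seeded into 384-well plates holding compound at 5 concentrations in 10-fold steps over a compound-specific 10,000-fold range, then incubated 72 h. Cell death was read first by CellTox Green fluorescence (485/520 nm), then viability by CellTiter-Glo luminescence after 10 min at room temperature. Each plate was normalised to 0.1 % DMSO and a positive kill control. EC50 was fitted from the dose-response curves and censored at the top concentration.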
# [2] = system: BT-549; conditions: 72 h
# Summary of the method: as §1
# [3] = system: HDQ-P1; conditions: 72 h
# Summary of the method: as §1
# [4] = system: MCF-10A; conditions: 72 h
# Summary of the method: as §1
# [5] = system: MDA-MB-231; conditions: 72 h
# Summary of the method: as §1
# [6] = system: MCF-10A; conditions: 72 h; remark: listed apart in the source
# Procedure: (§2)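 Drug sensitivity and resistance testing (DSRT) of breast cancer cell lines in 384-well plates, 5 concentrations in 10-fold dilutions over a compound-specific 10,000-fold range. After 72 h, cytotoxicity was read by CellTox Green fluorescence and viability by CellTiter-Glo luminescence (multiplexed), normalised to DMSO and benzethonium chloride controls. EC50 is the inflection point of the fitted dose-response curve (bottom asymptote free, so it can be relative for partial curves) and is censored at the highest tested concentration. Rows with DSS 0 (no meaningful response) were excluded.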
# [7] = system: MDA-MB-231; conditions: 72 h; remark: listed apart in the source
# Procedure: as §2
# [8] = system: MDA-MB-468; conditions: 72 h
# Procedure: as §2
# [9] = system: BT-474; test: normalised response (% of control), CellTiter-Glo; higher = more viable cells (100 = DMSO, 0 = benzethonium chloride kill control); conditions: incubation time: 72 h
# Summary of the method: (§3)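 Normalised signals at single concentrations make up the values. They come from breast cancer cell lines seeded (20 µl suspension) into 384-well plates with compound at 5 concentrations in 10-fold steps over a compound-specific 10,000-fold range, incubated 72 h, and read for CellTox Green fluorescence then CellTiter-Glo luminescence. Each plate was normalised to 0.1 % DMSO (100) and a positive kill control (0).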
# [10] = system: BT-549; test: as above; conditions: incubation time: 72 h
# Summary of the method: as §3
# [11] = system: CAL-120; test: as above; conditions: incubation time: 72 h
# Summary of the method: as §3
# [12] = system: CAL-148; test: as above; conditions: incubation time: 72 h
# Summary of the method: as §3
# [13] = system: CAL-51; test: as above; conditions: incubation time: 72 h
# Summary of the method: as §3
# [14] = system: CAL-85-1; test: as above; conditions: incubation time: 72 h
# Summary of the method: as §3
# [15] = system: DU-4475; test: as above; conditions: incubation time: 72 h
# Summary of the method: as §3
# [16] = system: HCC1143; test: as above; conditions: incubation time: 72 h
# Summary of the method: as §3
# [17] = system: HCC1599; test: as above; conditions: incubation time: 72 h
# Summary of the method: as §3
# [18] = system: HCC1937; test: as above; conditions: incubation time: 72 h
# Summary of the method: as §3
# [19] = system: HDQ-P1; test: as above; conditions: incubation time: 72 h
# Summary of the method: as §3
# [20] = system: Hs578T; test: as above; conditions: incubation time: 72 h
# Summary of the method: as §3
# [21] = system: MCF-10A; test: as above; conditions: incubation time: 72 h
# Summary of the method: as §3
# [22] = system: MDA-MB-231; test: as above; conditions: incubation time: 72 h
# Summary of the method: as §3
# [23] = system: MDA-MB-436; test: as above; conditions: incubation time: 72 h
# Summary of the method: as §3
# [24] = system: MDA-MB-453; test: as above; conditions: incubation time: 72 h
# Summary of the method: as §3
# [25] = system: MDA-MB-468; test: as above; conditions: incubation time: 72 h
# Summary of the method: as §3
# [26] = system: MFM-223; test: as above; conditions: incubation time: 72 h
# Summary of the method: as §3
# [27] = system: SK-BR-3; test: as above; conditions: incubation time: 72 h
# Summary of the method: as §3
# [28] = system: BT-474; test: normalised viability (% of control), CellTiter-Blue; higher = more viable cells (100 = DMSO, 0 = benzethonium chloride kill control); conditions: incubation time: 72 h
# Summary of the method: (§4)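 384-well plates were pre-loaded with compound in 5 µl medium before 20 µl of breast cancer cell suspension was seeded. Following 72 h incubation, 2.5 µl CellTiter-Blue reagent was added for 2 h at 37 °C. Fluorescence was read at 560/590 nm and plates were normalised to vehicle (100) and a positive kill control (0), checked by Z'-factor. Normalised viability is reported at a single listed concentration of the series.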
# [29] = system: BT-549; test: as above; conditions: incubation time: 72 h
# Summary of the method: as §4
# [30] = system: CAL-120; test: as above; conditions: incubation time: 72 h
# Summary of the method: as §4
# [31] = system: CAL-148; test: as above; conditions: incubation time: 72 h
# Summary of the method: as §4
# [32] = system: CAL-51; test: as above; conditions: incubation time: 72 h
# Summary of the method: as §4
# [33] = system: CAL-85-1; test: as above; conditions: incubation time: 72 h
# Summary of the method: as §4
# [34] = system: DU-4475; test: as above; conditions: incubation time: 72 h
# Summary of the method: as §4
# [35] = system: HCC1143; test: as above; conditions: incubation time: 72 h
# Summary of the method: as §4
# [36] = system: HCC1599; test: as above; conditions: incubation time: 72 h
# Summary of the method: as §4
# [37] = system: HCC1937; test: as above; conditions: incubation time: 72 h
# Summary of the method: as §4
# [38] = system: HDQ-P1; test: as above; conditions: incubation time: 72 h
# Summary of the method: as §4
# [39] = system: Hs578T; test: as above; conditions: incubation time: 72 h
# Summary of the method: as §4
# [40] = system: MDA-MB-231; test: as above; conditions: incubation time: 72 h
# Summary of the method: as §4
# [41] = system: MDA-MB-436; test: as above; conditions: incubation time: 72 h
# Summary of the method: as §4
# [42] = system: MDA-MB-453; test: as above; conditions: incubation time: 72 h
# Summary of the method: as §4
# [43] = system: MDA-MB-468; test: as above; conditions: incubation time: 72 h
# Summary of the method: as §4
# [44] = system: MFM-223; test: as above; conditions: incubation time: 72 h
# Summary of the method: as §4
# [45] = system: SK-BR-3; test: as above; conditions: incubation time: 72 h
# Summary of the method: as §4
compound,measurement,setting,value
CCC(C)(C)C(=O)O[C@H]1C[C@@H](C)C=C2C=C[C@H](C)[C@H](CC[C@@H]3C[C@@H](O)CC(=O)O3)[C@H]21 [Simvastatin],"EC50, CellTiter-Glo",[1],1200 nM
same,"EC50, CellTiter-Glo",[2],> 10000 nM
same,"EC50, CellTiter-Glo",[3],1700 nM
same,"EC50, CellTiter-Glo",[4],6390 nM
same,"EC50, CellTiter-Glo",[5],3150 nM
same,"EC50, CellTox Green",[6],2590 nM
same,"EC50, CellTox Green",[7],1680 nM
same,"EC50, CellTox Green",[8],511 nM
CNCc1ccc(-c2[nH]c3cc(F)cc4c3c2CCNC4=O)cc1 [Rucaparib] (1 nM),normalised response,[9],92.6%
same,normalised response,[10],96.9%
same,normalised response,[11],96.3%
same,normalised response,[12],98.2%
same,normalised response,[13],117%
same,normalised response,[14],100%
same,normalised response,[15],99.4%
same,normalised response,[16],94.1%
same,normalised response,[17],98.4%
same,normalised response,[18],97.8%
same,normalised response,[19],97.2%
same,normalised response,[20],102%
same,normalised response,[21],84.6%
same,normalised response,[22],99.1%
same,normalised response,[23],98.5%
same,normalised response,[24],98.2%
same,normalised response,[25],96.8%
same,normalised response,[26],95.9%
same,normalised response,[27],82.4%
same,normalised viability,[28],109%
same,normalised viability,[29],95.3%
same,normalised viability,[30],79.5%
same,normalised viability,[31],96.4%
same,normalised viability,[32],113%
same,normalised viability,[33],88.6%
same,normalised viability,[34],111%
same,normalised viability,[35],103%
same,normalised viability,[36],122%
same,normalised viability,[37],108%
same,normalised viability,[38],68.1%
same,normalised viability,[39],97.4%
same,normalised viability,[40],105%
same,normalised viability,[41],104%
same,normalised viability,[42],95.2%
same,normalised viability,[43],110%
same,normalised viability,[44],91.6%
same,normalised viability,[45],100%
